According to ChEMBL document CHEMBL1135194, “Inhibition of Src kinase activity by 4-anilino-7-thienyl-3-quinolinecarbonitriles” (Bioorg Med Chem Lett, 2002):

Biological target: Proto-oncogene tyrosine-protein kinase Src (Homo sapiens, UniProt P12931)
Assay: Inhibition of Src kinase in enzymatic assay

Chain of Proto-oncogene tyrosine-protein kinase Src (P12931 2-536 limits assumed): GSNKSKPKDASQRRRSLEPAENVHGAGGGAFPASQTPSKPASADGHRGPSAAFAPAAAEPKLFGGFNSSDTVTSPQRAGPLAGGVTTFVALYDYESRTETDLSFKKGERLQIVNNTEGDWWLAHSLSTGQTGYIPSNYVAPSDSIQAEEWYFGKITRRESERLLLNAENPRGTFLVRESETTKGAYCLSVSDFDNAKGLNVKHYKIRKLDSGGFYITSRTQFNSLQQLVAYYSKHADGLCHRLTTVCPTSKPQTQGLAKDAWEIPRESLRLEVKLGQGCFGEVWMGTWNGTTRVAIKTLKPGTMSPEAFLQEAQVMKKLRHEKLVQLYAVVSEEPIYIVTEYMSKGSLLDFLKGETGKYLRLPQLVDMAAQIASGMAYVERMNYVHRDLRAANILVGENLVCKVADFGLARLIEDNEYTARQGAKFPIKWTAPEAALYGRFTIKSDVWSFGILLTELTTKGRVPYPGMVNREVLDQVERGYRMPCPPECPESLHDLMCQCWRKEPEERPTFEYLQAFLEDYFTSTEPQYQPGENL

Row | SMILES | IC50
1 | COc1cc(Nc2c(C#N)cnc3cc(-c4cc(CN5CCOCC5)cs4)ccc23)c(Cl)cc1Cl | 5.7 nM
2 | COc1cc(Nc2c(C#N)cnc3cc(-c4ccsc4CN4CCOCC4)ccc23)c(Cl)cc1Cl | 440 nM
3 | COc1cc(Nc2c(C#N)cnc3cc(-c4cscc4CN4CCOCC4)ccc23)c(Cl)cc1Cl | 240 nM
4 | COc1cc(Nc2c(C#N)cnc3cc(-c4cc(CN5CCCCC5)cs4)ccc23)c(Cl)cc1Cl | 4.2 nM
5 | COc1cc(Nc2c(C#N)cnc3ccc(-c4csc(CN5CCOCC5)c4)cc23)c(Cl)cc1Cl | 280 nM

The next molecules have a lower IC50 than those just listed; values first:

Row | IC50 | SMILES
6 | 1.4 nM | COc1cc(Nc2c(C#N)cnc3cc(-c4csc(CN5CCC(O)CC5)c4)ccc23)c(Cl)cc1Cl
7 | 2.5 nM | COc1cc(Nc2c(C#N)cnc3cc(-c4ccc(CN5CCOCC5)s4)ccc23)c(Cl)cc1Cl
8 | 2.7 nM | COc1cc(Nc2c(C#N)cnc3cc(-c4csc(CN5CCOCC5)c4)ccc23)c(Cl)cc1Cl
